Source: patent US20180352845A1, “NUTRITIONAL COMPOSITIONS AND INFANT FORMULAS TO PROMOTE MYELINATION IN THE BRAIN” (NESTEC S.A., priority 2015, published 2018)

system: brain myelination (myelin water fraction); experiment: Cross-sectional correlation analysis (GLM) of infant formula nutrient composition vs brain myelination by mcDESPOT MRI; type: in vivo, human; conditions: children up to 5 years fed different infant formulas during infancy; voxel-wise correlations, p<0.05 corrected; inter-variable correlation threshold 0.9
Method: MRI brain scans of infants and children between 0 and 5 years were acquired using a white matter imaging technique. This technique provides a quantitative measure, the Myelin Water Fraction (MWF), which is a surrogate marker of myelin content. When mapped as a function of time across early childhood, myelination trajectories can be generated.
Infant formula composition: six infant formulas fed to infants participating in study were analyzed for their composition/level of myelin-relevant nutrients.
Infants included in this study were drawn from a larger longitudinal study of normal brain and behavioral development: the Brown university Assessment of Myelination and Behavior Across Maturation (BAMBAM). To focus on neurotypical development, children with known potential risk factors for learning, neurologic, or psychiatric disorders were specifically excluded during recruitment and enrollment. Thus, children with in utero alcohol or illicit substance exposure, premature (<37 weeks gestation) or multiple birth, fetal ultrasound abnormalities, complicated pregnancy (e.g., preeclampsia), APGAR scores <8, NICU admission, neurological disorder (e.g., head injury, epilepsy), psychiatric or developmental disorders in the infant, parents or siblings (including maternal depression requiring medication) were excluded. Ongoing screenings, such as the MCAT for autism, or CBCL for behavioral problems, were further used to remove enrolled children with clinically concerning behaviors or overt medical conditions (such as autism spectrum disorders).
A combination of retrospective and prospective data were acquired from parents via detailed medical histories and parental interview on type of infant formula used, percentage of breastfeeding to formula feeding, and length of exclusive breastfeeding. This information was updated at each study visit, which occurred approximately every 6 months for children under 2 years, and yearly for older children. Using this information, children were categorized into one of 2 groups: #1. Exclusively formula-fed; and #2. Exclusively breastfed for at least 90 days (3 months). Children who were fed a combination of breastmilk and formula within 3 months were excluded from our analysis. Infants within the exclusively formula-fed group were further sub-divided based on parental reports of the main infant formula used throughout the first 3 months. Main formula was defined as that given 90% of the time or more (in the case were parents used an alternate brand during vacation, for example).
Using these criteria, 94 exclusively formula-fed infants and young children were selected into group #1. These included 13 children who received formula #2; 28 who received formula #5; 8 who received formula #3; 39 who received formula #4; 5 who received formula #1 and 1 who received formula #6. A sample of 52 exclusively breast-fed infants were also selected and matched to the over formula-fed group with regards to mean age, gestation duration, birth weight, male:female ratio, ethnicity ratio, maternal education, family size, and number of languages spoken in the home (in addition to English).
Each infant was scanned using the mcDESPOT (multicomponent Driven Equilibrium Single Pulse Observation of T1 and T2) white matter imaging technique Deoni et al. (Magn. Reson. Med. 2008, 60:1372-1387), which provides a quantitative measure of the myelin water fraction (MWF) at each imaging point throughout the brain. All infants were scanned during natural (i.e. non-sedated) sleep using acoustically-muffled mcDESPOT imaging protocols. Total imaging times ranged from 19 minutes for the youngest toddlers to 24 minutes for the older 4 year-old children.

Compound | nutritional drivers for myelination indicated by the final general linear model
CCCCC/C=C\C/C=C\C/C=C\C/C=C\CCCC(=O)O [ARA, arachidonic acid] | identified drivers
[Mg+2] [Magnesium] | identified drivers
[Ca+2] [calcium] | identified drivers
[P] [phosphorus] | identified drivers
[Zn] [zinc] | identified drivers
iron | identified drivers
phosphatidylcholine | identified drivers
phosphatidylinositol | identified drivers
sphingomyelin | identified drivers
